ChEMBL document CHEMBL1121440, “Soft drugs. 2. Soft alkylating compounds as potential antitumor agents” (1980)

What was measured:
Format in all cases: functional
Conditions in all cases: P388, ip, route intraperitoneal
Mus musculus [1] = experiment: Evaluated for % increase in median survival rate against P388 Lymphocytic Leukemia at a dose of 200 mg/kg administered intraperitoneally
Mus musculus [2] = experiment: Evaluated for % increase in median survival rate against P388 Lymphocytic Leukemia at a dose of 100 mg/kg administered intraperitoneally
Mus musculus [3] = experiment: Evaluated for % increase in median survival rate against P388 Lymphocytic Leukemia at a dose of 400 mg/kg administered intraperitoneally
Mus musculus [4] = experiment: Evaluated for % increase in median survival rate against P388 Lymphocytic Leukemia at a dose of 50 mg/kg administered intraperitoneally

Q: With CCCCCCC(=O)OCCl [HEPTANOIC ACID CHLOROMETHYL ESTER] as the molecule, how does the ILS at 200 mg/kg (Mus musculus [1]) read?
A: 127%

Q: And the ILS at 100 mg/kg (Mus musculus [2])?
A: 120%

Q: And the ILS at 400 mg/kg (Mus musculus [3])?
A: 109%

Q: What about the ILS at 50 mg/kg (Mus musculus [4]) of the same molecule?
A: 107%
